Experimental data from the NIST ThermoML archive (doi:10.1016/j.jct.2013.05.022).
± gives the expanded uncertainty stated by the source.

Assay: Boiling temperature at pressure P
Conditions: Liquid, Ebulliometric method (Recirculating still)

Structure (SMILES)	Boiling temperature at pressure P (13.33 kPa) [°C]	Boiling temperature at pressure P (20 kPa) [°C]	Boiling temperature at pressure P (26.66 kPa) [°C]	Boiling temperature at pressure P (33.33 kPa) [°C]	Boiling temperature at pressure P (40 kPa) [°C]	Boiling temperature at pressure P (53.33 kPa) [°C]	Boiling temperature at pressure P (66.66 kPa) [°C]	Boiling temperature at pressure P (79.99 kPa) [°C]	Boiling temperature at pressure P (93.33 kPa) [°C]	Boiling temperature at pressure P (98.12 kPa) [°C]	Boiling temperature at pressure P (101.33 kPa) [°C]
C=CC(C)(O)CCC=C(C)C (centres undefined) [3,7-dimethyl-1,6-octadien-3-ol]	133.2 ± 0.9	143.7 ± 0.9	152.1 ± 0.9	159 ± 0.8	164.7 ± 0.8	174.1 ± 0.8	182 ± 0.8	188.5 ± 0.8			
CCO [ethanol]	35.7 ± 0.9	43.1 ± 0.8	48.5 ± 0.8	53 ± 0.8	57 ± 0.8	63.1 ± 0.8	68.2 ± 0.8	72.5 ± 0.8	76.2 ± 0.8	77.7 ± 0.8	78.2 ± 0.8
